Measured values: patent EP0845217A1, “Inhibiting undesirable taste in oral compositions” (priority 1996, dated 1998)

Columns and labels:
[1] = tested on: purified protein tyrosine phosphatase; assay: Purified protein tyrosine phosphatase, dephosphorylation of phosphotyrosine-containing peptide substrates; type: biochemical; settings: experiments not described
[2] = tested on: human taste response to bitter-tasting compounds; assay: Human taste test: paired comparisons of bitter-tasting compounds with and without VMP; type: in vivo; settings: inhibitor 0.3%; for Cert. (%): mean certainty score
Description: In this test all samples contain 5% sucrose. […] Subjects rate which sample is most bitter, and also indicate on a 7 point scale the certainty of their choice. […] However, it inhibits bitterness of phenylpropanolamine and guaifenesin to a lesser degree.

mud puppy taste cells = assay: Response of isolated taste cells to bitter-tasting compounds, intracellular calcium fluorescence; type: cell-based
Experimental: Taste cells are isolated from the mud puppy, a type of salamander (S. C. Kinnamon, et al, Chemical Senses 13: 355 - 366, 1988). Briefly, a fresh mud puppy tongue is incubated with collagenase, the non-gustatory epithelium is peeled off the surface, and individual taste buds are gently drawn into a micropipette using a dissecting microscope at 50X magnification. The taste buds are plated into small vessels, that are coated with Cell-Tak, containing culture media. The taste cells can remain viable up to 18 days and maintain normal functions (C. Ruiz, et al, Experimental Cell Biology of Taste and Olfaction, Current Techniques and Protocols, A. I. Spielman and J. G. Brand, eds., CRC Press, 1995, pp. 79 - 84). The taste cells are labeled intracellularly with a marker compound that fluoresces in a dose-dependent fashion to calcium ion concentration. Since an increase in the intracellular calcium ion concentration is one of the last steps in converging biochemical signal transduction pathways for bitterness, the fluorescent marker correlates with taste cell response to bitterness (D. Restrepo, et al, Experimental Cell Biology of Taste and Olfaction, Current Techniques and Protocols, A. I. Spielman and J. G. Brand, eds., CRC Press, 1995, pp. 387 - 398). Labeled taste cells are observed microscopically using image analysis software. Using a micropipette, taste cells are exposed to bitter-tasting compounds by adding the compounds in media near the taste cell. Cells that respond to the bitter-tasting compound show an increase in fluorescence intensity. Bitter inhibitors are tested by adding them to the test solution with the bitter-tasting compound. The response of individual taste cells to bitter-tasting compounds and to bitter-tasting compounds plus inhibitor are monitored by measuring the fluorescent intensity using a microscope. Images are stored electronically and image analysis software is used to analyze the data (D. Restrepo, et al, Biophysical Journal 64: 1961 - 1966, 1993).

[3] = tested on: human taste response to bitter-tasting compounds; assay: Human taste test: detection threshold of bitter-tasting compounds with and without VMP; type: in vivo; settings: 0.3% VMP
Experimental: In the first taste test, the detection threshold for a bitter-tasting compound is determined by having subjects taste a series of solutions containing increasing concentrations of the bitter-tasting compound. None of the subjects are able to taste the bitterness in the first solution containing the lowest concentration of the bitter-tasting molecule. The subjects are instructed to indicate the first, or lowest concentration of solution that is sensed as bitter. This concentration is the detection threshold for that particular compound and subject. […] The detection threshold for the bitter-tasting compound plus inhibitor is likewise determined. All of these aqueous solutions contain 5% sucrose. […] The dilution series are in ^1/2 log increments (i.e., 1 uM, 3.2 uM, 10 uM, 32 uM). The pair of dilution series with and without inhibitor is tasted within a 2 hour time period. Subjects are blinded as to the identity of the bitter compound and whether inhibitor is present or not. The two dilution series are presented in random order. […]

[4] = acetaminophen 10.00 mM, total # responses 4
[5] = acetaminophen 32.00 mM, total # responses 5
[6] = chlorpheniramine maleate 0.100 mM, total # responses 4
[7] = chlorpheniramine maleate 1.000 mM, total # responses 4
[8] = dextromethorphan 0.320 mM, total # responses 4
[9] = guaifenesin 0.320 mM, total # responses 4
[10] = guaifenesin 3.200 mM, total # responses 4
[11] = guaifenesin 10.00 mM, total # responses 4
[12] = phenylpropanolamine HCl 3.200 mM, total # responses 5
[13] = phenylpropanolamine HCl 10.00 mM, total # responses 5
[14] = pseudoephedrine HCl 0.320 mM, total # responses 5
[15] = pseudoephedrine HCl 1.000 mM, total # responses 5
[16] = sucrose octaacetate 0.001 mM, total # responses 5
[17] = sucrose octaacetate 0.003 mM, total # responses 5

vanillylmonophosphate [VMP]
effect on tyrosine phosphatase activity against peptide substrates [1]: inhibits the activity
Cert. (%) ([2]; acetaminophen 10.00 mM): 43%
Corr./Tot. [2, 4]: 0.50
Correct # responses [2, 4]: 2
Cert. (%) ([2]; acetaminophen 32.00 mM): 29%
Corr./Tot. [2, 5]: 0.80
Correct # responses [2, 5]: 4
Cert. (%) ([2]; chlorpheniramine maleate 0.100 mM): 54%
Corr./Tot. [2, 6]: 1.00
Correct # responses [2, 6]: 4
Cert. (%) ([2]; chlorpheniramine maleate 1.000 mM): 71%
Corr./Tot. [2, 7]: 1.00
Correct # responses [2, 7]: 4
Cert. (%) ([2]; dextromethorphan 0.320 mM): 82%
Corr./Tot. [2, 8]: 1.00
Correct # responses [2, 8]: 4
Cert. (%) ([2]; guaifenesin 0.320 mM): 14%
Corr./Tot. [2, 9]: 0.50
Correct # responses [2, 9]: 2
Cert. (%) ([2]; guaifenesin 3.200 mM): 36%
Corr./Tot. [2, 10]: 0.50
Correct # responses [2, 10]: 2
Cert. (%) ([2]; guaifenesin 10.00 mM): 57%
Corr./Tot. [2, 11]: 0.75
Correct # responses [2, 11]: 3
Cert. (%) ([2]; phenylpropanolamine HCl 3.200 mM): 11%
Corr./Tot. [2, 12]: 0.40
Correct # responses [2, 12]: 2
Cert. (%) ([2]; phenylpropanolamine HCl 10.00 mM): 49%
Corr./Tot. [2, 13]: 0.80
Correct # responses [2, 13]: 4
Cert. (%) ([2]; pseudoephedrine HCl 0.320 mM): 14%
Corr./Tot. [2, 14]: 0.60
Correct # responses [2, 14]: 3
Cert. (%) ([2]; pseudoephedrine HCl 1.000 mM): 34%
Corr./Tot. [2, 15]: 0.40
Correct # responses [2, 15]: 2
Cert. (%) ([2]; sucrose octaacetate 0.001 mM): 20%
Corr./Tot. [2, 16]: 0.20
Correct # responses [2, 16]: 1
Cert. (%) ([2]; sucrose octaacetate 0.003 mM): 23%
Corr./Tot. [2, 17]: 0.40
Correct # responses [2, 17]: 2
effect on taste cell response to denatonium benzoate (mud puppy taste cells; inhibitor mixed with denatonium benzoate): decreases the taste cell response
effect on taste cell response to dextromethorphan (mud puppy taste cells; inhibitor mixed with dextromethorphan): decreases the taste cell response
# VMP did not change threshold ([3]; CPC, n 2): 1
# VMP increased threshold ([3]; CPC, n 2): 0
% Subjects that VMP increased threshold ([3]; CPC, n 2): 0.00%
# VMP did not change threshold ([3]; acetaminophen, n 5): 3
# VMP increased threshold ([3]; acetaminophen, n 5): 2
% Subjects that VMP increased threshold ([3]; acetaminophen, n 5): 40.00%
# VMP did not change threshold ([3]; caffeine, n 4): 3
# VMP increased threshold ([3]; caffeine, n 4): 0
% Subjects that VMP increased threshold ([3]; caffeine, n 4): 0.00%
# VMP did not change threshold ([3]; chlorpheniramine maleate, n 5): 0
# VMP increased threshold ([3]; chlorpheniramine maleate, n 5): 4
% Subjects that VMP increased threshold ([3]; chlorpheniramine maleate, n 5): 80.00%
# VMP did not change threshold ([3]; cimetidine, n 2): 1
# VMP increased threshold ([3]; cimetidine, n 2): 1
% Subjects that VMP increased threshold ([3]; cimetidine, n 2): 50.00%
# VMP did not change threshold ([3]; denatonium benzoate, n 4): 2
# VMP increased threshold ([3]; denatonium benzoate, n 4): 2
% Subjects that VMP increased threshold ([3]; denatonium benzoate, n 4): 50.00%
# VMP did not change threshold ([3]; dextromethorphan, n 5): 4
# VMP increased threshold ([3]; dextromethorphan, n 5): 1
% Subjects that VMP increased threshold ([3]; dextromethorphan, n 5): 20.00%
# VMP did not change threshold ([3]; domiphen bromide, n 4): 3
# VMP increased threshold ([3]; domiphen bromide, n 4): 1
% Subjects that VMP increased threshold ([3]; domiphen bromide, n 4): 25.00%
# VMP did not change threshold ([3]; doxylamine succinate, n 3): 1
# VMP increased threshold ([3]; doxylamine succinate, n 3): 2
% Subjects that VMP increased threshold ([3]; doxylamine succinate, n 3): 66.67%
# VMP did not change threshold ([3]; famotidine, n 3): 3
# VMP increased threshold ([3]; famotidine, n 3): 0
% Subjects that VMP increased threshold ([3]; famotidine, n 3): 0.00%
# VMP did not change threshold ([3]; guaifenesin, n 8): 2
# VMP increased threshold ([3]; guaifenesin, n 8): 2
% Subjects that VMP increased threshold ([3]; guaifenesin, n 8): 25.00%
# VMP did not change threshold ([3]; phenylpropanolamine, n 7): 2
# VMP increased threshold ([3]; phenylpropanolamine, n 7): 4
% Subjects that VMP increased threshold ([3]; phenylpropanolamine, n 7): 57.14%
# VMP did not change threshold ([3]; pseudoephedrine, n 5): 2
# VMP increased threshold ([3]; pseudoephedrine, n 5): 2
% Subjects that VMP increased threshold ([3]; pseudoephedrine, n 5): 40.00%
# VMP did not change threshold ([3]; ranitidine, n 3): 1
# VMP increased threshold ([3]; ranitidine, n 3): 1
% Subjects that VMP increased threshold ([3]; ranitidine, n 3): 33.33%
# VMP did not change threshold ([3]; sucrose octaacetate, n 7): 4
# VMP increased threshold ([3]; sucrose octaacetate, n 7): 1
% Subjects that VMP increased threshold ([3]; sucrose octaacetate, n 7): 14.29%
